Experimental data published in article PMC7395068, “The evolution of strategies to minimise the risk of human drug-induced liver injury (DILI) in drug discovery and development” (Archives of Toxicology, 2020).
Like-named read-outs stand apart in the source and are kept apart here.

Experiments:
[1] = tested on: human hepatocytes; settings: cited from earlier work
[2] = in vivo; cited from earlier work
[3] = plasma free fraction; cited from earlier work
[4] = Plasma free fraction (fu) and unbound Cmax (Cmax,u); format: in vitro ADME, human; settings: unbound plasma Cmax
Experimental: The prediction of DILI severity was evaluated further using the 3D combined HCI assays using plasma-free fraction. The majority of fu values were obtained from literature, when unavailable in-house prediction was utilised. Unbound plasma Cmax concentrations (Cmax,u) were derived by multiplying total plasma Cmax with the corresponding free fraction (fu) for each compound.

[5] = tested on: PHH spheroids; settings: cited from earlier work
[6] = tested on: HepaRG spheroids; assay: Combined HCI (HCS) and cellular ATP 3D assay in HepaRG spheroids; settings: for AC50 / minimal effective concentration: Homo sapiens
[7] = tested on: PHH; settings: cited from earlier work
[8] = tested on: HepG2 C3A spheroid, BSEP, Glu/Gal in HepG2 cells, bioactivation; settings: cited from earlier work
[9] = tested on: hLiMTs; assay: Combined HCI (HCS) and cellular ATP 3D assay in hLiMTs
[10] = tested on: THLE or HepG2 cells, isolated mitochondria, BSEP; settings: cited from earlier work
[11] = tested on: isolated mouse liver mitochondria; settings: In vitro Assay; ref Porceddu 2012; cited from earlier work
[12] = tested on: hLiMTs; settings: cited from earlier work
[13] = in vivo; cited from earlier work; remark: listed apart in the source
[14] = Microtissue model structural based (HCI), combined HCS and ATP, MEC < 25 × Cmax.tot cut-off

SMILES: CCN(CC)CC#CCOC(=O)C(O)(c1ccccc1)C1CCCCC1 (stereo not shown) [oxybutynin]
- DILI in vitro assay prediction, Xu (2008) [1]: -VE
- Structural based (HCI) [1]: -VE
- Assigned DILI category [2]: 1
- In vivo DILI [2]: -VE
- fu [3]: 0.030
- Human plasma Cmax,u [4]: 1 nM
- hLiMTs ATP <20 x Cmax ([5]; In vitro Assay, ref Vorrink 2018): -VE
- DILI in vitro assay prediction, Vorrink (2018) [5]: -VE
- HepaRG <25x Avg Cmax ATP ([6]; HepaRG, ATP endpoint, cut-off <25x Avg Cmax): -ve
- HepaRG <100x Avg Cmaxu ATP ([6]; HepaRG, ATP endpoint, cut-off <100x Avg Cmaxu): -ve
- HepaRG <25x Avg Cmax HCS ([6]; HepaRG, HCS endpoints, cut-off <25x Avg Cmax): -ve
- HepaRG <100x Avg Cmaxu HCS ([6]; HepaRG, HCS endpoints, cut-off <100x Avg Cmaxu): -ve
- HepaRG <25x Avg Cmax All ([6]; HepaRG, all endpoints (ATP and HCS), cut-off <25x Avg Cmax): -ve
- HepaRG Cmax max All ([6]; HepaRG, all endpoints, Cmax max used): -ve
- HepaRG Cmax min All ([6]; HepaRG, all endpoints, Cmax min used): -ve
- HepaRG <10 uM All ([6]; HepaRG, all endpoints, cut-off <10 uM): -ve
- HepaRG <100x Avg Cmaxu All ([6]; HepaRG, all endpoints, cut-off <100x Avg Cmaxu): -ve
- AC50 ([6]; HepaRG, read-out: ATP endpoint AC50): 28.5 µM
- minimal effective concentration ([6]; HepaRG, read-out: ATP endpoint MEC): 16.1 µM
- AC50 ([6]; HepaRG, read-out: HCS endpoint AC50): 64.5 µM
- minimal effective concentration ([6]; HepaRG, read-out: HCS endpoint MEC): 10.3 µM
- DILI prediction HepaRG spheroids (HCS-MEC) [6, 14]: -VE
- PHH ATP <100uM [7]: -VE
- PHH/100uM, Proctor (2017) [7]: -VE
- Bayesian Machine Learning DILI prediction, Williams (2019) [8]: -VE
- AC50 ([9]; Homo sapiens, read-out: HCS endpoint AC50): 6.06 µM
- minimal effective concentration ([9]; Homo sapiens, read-out: HCS endpoint MEC): 2.11 µM
- DILI prediction hLiMTs (HCS-MEC) [9, 14]: -VE
- hLiMTs <25x Avg Cmax ATP ([9]; hLiMTs, ATP endpoint, cut-off <25x Avg Cmax): -ve
- hLiMTs <100x Avg Cmaxu ATP ([9]; hLiMTs, ATP endpoint, cut-off <100x Avg Cmaxu): -ve
- hLiMTs <25x Avg Cmax HCS ([9]; hLiMTs, HCS endpoints, cut-off <25x Avg Cmax): -ve
- hLiMTs <100x Avg Cmaxu HCS ([9]; hLiMTs, HCS endpoints, cut-off <100x Avg Cmaxu): -ve
- hLiMTs <25x Avg Cmax All ([9]; hLiMTs, all endpoints (ATP and HCS), cut-off <25x Avg Cmax): -ve
- hLiMTs Cmax max All ([9]; hLiMTs, all endpoints, Cmax max used): -ve
- hLiMTs Cmax min All ([9]; hLiMTs, all endpoints, Cmax min used): -ve
- hLiMTs <10 uM All ([9]; hLiMTs, all endpoints, cut-off <10 uM): +ve (<10 uM)
- hLiMTs <100x Avg Cmaxu All ([9]; hLiMTs, all endpoints, cut-off <100x Avg Cmaxu): -ve
- Rule of Two hybrid HRM Score ≥8, Aleo (2019) [10]: -VE
- in vitro data EC2<=1x Cmax [11]: -VE
- hLiMTs ATP <100uM [12]: -VE
- hLiMTs/100uM, Proctor (2017) [12]: -VE
- DILI +VE (5-8), DILI -VE (-4) [13]: -VE
- DILI severity category (Chen et al. [2016]) [13]: No
